Measurements as given in patent publication US12577417B2, “Active energy ray-curable aqueous ink, recording method and recording apparatus” (CANON KABUSHIKI KAISHA, priority 2021, dated 2026).

Test: Water solubility of bifunctional polymerizable monomer
Assay type: physicochemical
Conditions: mixed with ion exchanged water at 25° C.; concentration at which no insoluble matter is found by visual observation
Method: When a bifunctional polymerizable monomer is mixed with ion exchanged water at 25° C. and the concentration at which no insoluble matter is found as a result of visual observation of the resulting mixture is shown as water solubility. Higher water solubility is preferred and the evaluation criteria is as follows.
A: no insoluble matter is found at 20% by mass
B: no insoluble matter is found at 5% by mass
C: no insoluble matter is found at 1% by mass
D: an insoluble matter is found at 1% by mass

With `C=CC(=O)NCCCCCC(=O)NCCOCCOCCNC(=O)CCCCCNC(=O)C=C` [Curable substance 2] as the molecule, how does the Water solubility read?
Its Water solubility is “C (no insoluble matter is found at 1% by mass)”.

With `C=CC(=O)NCCOCCOCCNC(=O)C=C` [Comparative compound 2, reference compound] as the molecule, how does the Water solubility read?
The Water solubility was “A (no insoluble matter is found at 20% by mass)”.

For `C=CC(=O)NCCC(=O)NCCCNC(=O)CCNC(=O)C=C` [Curable substance 3], which Water solubility is on record?
Its Water solubility is “B (no insoluble matter is found at 5% by mass)”.

Which Water solubility does the source give for `C=CC(=O)NCCCOCCOCCOCCCN(O)C(=O)C=C` [Comparative compound 1, reference compound] here?
The Water solubility was “A (no insoluble matter is found at 20% by mass)”.

Which Water solubility does the source give for `C=CC(=O)NCCCC(=O)NCCCNC(=O)CCCNC(=O)C=C` [Curable substance 4] here?
The Water solubility was “B (no insoluble matter is found at 5% by mass)”.

For `C=CC(=O)NCCCCCC(=O)NCCNC(=O)CCCCCNC(=O)C=C` [Curable substance 12], which Water solubility is on record?
Its Water solubility is “C (no insoluble matter is found at 1% by mass)”.

With `C=CC(=O)NCCC(=O)NCCOCCOCCNC(=O)CCNC(=O)C=C` [Curable substance 1] as the molecule, how does the Water solubility read?
The Water solubility was “A (no insoluble matter is found at 20% by mass)”.
